The values below come from patent US20230135894A1, “MK2 DEGRADERS AND USES THEREOF” (Kymera Therapeutics, Inc., priority 2021, published 2023).

Structures are written as SMILES. Some results are limits rather than exact numbers.

Test [1] addresses T1, MK2 (Homo sapiens, UniProt P49137). Kind of test: MK2 degradation in human SW1353 cells (MSD, 24 h). The class given is cell-based. Details: endogenous in cells; host or cells: SW-1353 (ATCC HTB-94). Conditions: for Dmax: read-out: MK2 MSD SW 1353 24 h Dmax %; for DC50: read-out: MK2 MSD SW1353 degradation 24 h GMean External Abs DC50. Put shortly:
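DC50 derived by 4-parameter logistic fit, with DMSO-treated signal as top and lysis-buffer signal as bottom. Remaining MK2 was measured by MSD electrochemiluminescent sandwich assay in RIPA lysates of human SW1353 cells exposed for 24 h at 37 °C to serially diluted compound in 0.1% DMSO.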

Test [2] has as its target T1, MK2. Kind of test: MK2 degradation in human THP-1 monocytic cells (MSD, 24 h). The class given is cell-based. Further details: endogenous in cells; key to MK2 MSD THP-1 degradation 24 h GMean External Abs DC50: A (<0.001 μM); B (0.001-0.01 μM); C (0.01-0.1 μM); D (>0.1 μM); —: “-”=not tested or inactive. The note with it: for Dmax: THP-1, THP-1 cells; for DC50: read-out: MK2 MSD THP-1 degradation 24 h GMean External Abs DC50. The gist of the method: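 Readout: residual MK2 protein in THP-1 lysates, measured by MSD electrochemiluminescence sandwich assay after 24 h compound exposure (≤10-point serial dilutions, 0.1% DMSO, 37 °C). Curves normalised between lysis-buffer and DMSO-cell signals; DC50 by 4-parameter logistic fit.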

T1 sequence (P49137 whole entry): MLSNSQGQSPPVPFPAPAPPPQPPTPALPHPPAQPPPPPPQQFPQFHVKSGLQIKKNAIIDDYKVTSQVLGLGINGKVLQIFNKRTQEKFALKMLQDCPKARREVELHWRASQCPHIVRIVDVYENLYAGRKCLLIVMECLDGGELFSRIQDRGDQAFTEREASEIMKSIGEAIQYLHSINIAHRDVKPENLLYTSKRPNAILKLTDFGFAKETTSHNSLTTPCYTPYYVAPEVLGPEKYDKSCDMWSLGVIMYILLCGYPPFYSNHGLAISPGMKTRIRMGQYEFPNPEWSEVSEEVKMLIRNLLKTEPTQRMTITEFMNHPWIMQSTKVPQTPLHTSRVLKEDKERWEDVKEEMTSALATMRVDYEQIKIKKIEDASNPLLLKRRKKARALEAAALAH

Broadly, the Dmax is the greatest extent of degradation seen. The term DC50 denotes the concentration at which degradation of the target reaches its halfway point. Turning to `Cn1c(=O)n(C2CCC(=O)NC2=O)c2ccc(N3CCC(CN4CCN(c5ccc(-c6cc(-c7cc8c([nH]7)CCNC8=O)ccn6)c(F)c5)CC4)CC3)cc21` (centres unmarked) [Compound I-226], the greatest degradation seen (Dmax) on MK2 [1] and at MK2 [2] was greater than 75% throughout. In addition, the 50% degradation concentration (DC50) at MK2 [1] and at MK2 [2] (THP-1 cells) was less than 1 nM each time.
On to `Cc1cc(N2CCN(CC3CCN(c4ccc5c(c4)n(C)c(=O)n5C4CCC(=O)NC4=O)CC3)CC2)ccc1-c1cc(-c2cc3c([nH]2)CCNC3=O)ccn1` (centres unmarked) [Compound I-229], for which the Dmax on MK2 [1] and at MK2 [2] was less than 50% each time. For the same molecule, the DC50 on MK2 [1] and at MK2 [2] (THP-1 cells) was greater than 100 nM each time.
Regarding `CC(C)Oc1cc(-c2ccc3c(ccc4sc5c(c43)NC[C@@H](C)NC5=O)n2)cc(N2CCN(CC3CCN(c4ccc5c(c4)n(C)c(=O)n5C4CCC(=O)NC4=O)CC3)CC2)c1` (some centres unmarked) [Compound I-230], the greatest degradation seen (Dmax) on MK2 [1] and at MK2 [2] was greater than 75% in each case. Further, the half-maximal degradation concentration (DC50) at MK2 [1] and on MK2 [2] (THP-1 cells) was less than 1 nM each time.
Take `CC(C)c1cc(-c2ccc3c(ccc4sc5c(c43)NC[C@@H](C)NC5=O)n2)cc(N2CCN(CC3CCN(c4ccc5c(c4)n(C)c(=O)n5C4CCC(=O)NC4=O)CC3)CC2)c1` (some centres unmarked) [Compound I-231]: the Dmax at MK2 [1] and at MK2 [2] was greater than 75% throughout. Further, the DC50 at MK2 [1] and at MK2 [2] (THP-1 cells) was 1 to 10 nM in each case.
For `C[C@@H]1CNc2c(sc3ccc4nc(-c5ccc([C@H]6CC[C@H](CN7CCN(c8ccc9c(c8)n(C)c(=O)n9C8CCC(=O)NC8=O)CC7)CC6)nc5)ccc4c23)C(=O)N1` (some centres unmarked) [Compound I-232], the Dmax on MK2 [1] and on MK2 [2] was greater than 75% each time. Further, the DC50 at MK2 [1] and on MK2 [2] (THP-1 cells) was less than 1 nM throughout.
Regarding `CCc1cc(-c2ccc3c(ccc4sc5c(c43)NC[C@@H](C)NC5=O)n2)cc(N2CCN(CC3CCN(c4ccc5c(c4)n(C)c(=O)n5C4CCC(=O)NC4=O)CC3)CC2)c1` (some centres unmarked) [Compound I-233], the maximal degradation (Dmax) at MK2 [1] and at MK2 [2] was greater than 75% each time. Also, the DC50 at MK2 [1] and at MK2 [2] (THP-1 cells) was 1 to 10 nM throughout.
`Cc1nc(N2CCN(CC3CN(c4ccc5c(c4)n(C)c(=O)n5C4CCC(=O)NC4=O)C3)CC2)ccc1-c1ccc2c(ccc3sc4c(c32)NC[C@@H](C)NC4=O)n1` (some centres unmarked) [Compound I-234]: the maximal degradation (Dmax) on MK2 [1] and at MK2 [2] was greater than 75% in each case. The DC50 at MK2 [1] and on MK2 [2] (THP-1 cells) was less than 1 nM throughout.
Turning to `C[C@@H]1CNc2c(sc3ccc4nc(-c5ccc(N6CCN(CC7CN(c8ccc9c(c8)n(C)c(=O)n9C8CCC(=O)NC8=O)C7)CC6)cc5Cl)ccc4c23)C(=O)N1` (some centres unmarked) [Compound I-235], the Dmax on MK2 [1] and at MK2 [2] was greater than 75% each time. Besides, the 50% degradation concentration (DC50) on MK2 [1] and at MK2 [2] (THP-1 cells) was less than 1 nM throughout.
In the case of `Cc1cc(N2CCN(CC3CN(c4ccc5c(c4)n(C)c(=O)n5C4CCC(=O)NC4=O)C3)CC2)ccc1-c1ccc2c(ccc3sc4c(c32)NC[C@@H](C)NC4=O)n1` (some centres unmarked) [Compound I-236], the maximal degradation (Dmax) on MK2 [1] and at MK2 [2] was greater than 75% each time. The DC50 on MK2 [1] and on MK2 [2] (THP-1 cells) was less than 1 nM each time.
For the molecule `C[C@@H]1CNc2c(sc3ccc4nc(-c5ccc(N6CCN(CC7CN(c8ccc9c(c8)n(C)c(=O)n9C8CCC(=O)NC8=O)C7)CC6)cc5F)ccc4c23)C(=O)N1` (some centres unmarked) [Compound I-237], the greatest degradation seen (Dmax) on MK2 [1] and on MK2 [2] was greater than 75% each time. Besides, the 50% degradation concentration (DC50) at MK2 [1] and at MK2 [2] (THP-1 cells) was less than 1 nM throughout.
For the molecule `COc1cc(-c2ccc3c(ccc4sc5c(c43)NC[C@@H](C)NC5=O)n2)cc(N2CCN(CC3CCN(c4ccc5c(c4)n(C)c(=O)n5C4CCC(=O)NC4=O)CC3)CC2)c1` (some centres unmarked) [Compound I-239], the greatest degradation seen (Dmax) at MK2 [1] and on MK2 [2] was greater than 75% in each case. Besides, the DC50 at MK2 [1] and at MK2 [2] (THP-1 cells) was less than 1 nM throughout.
On to `C[C@@H]1CNc2c(sc3ccc4nc(-c5cc(C#N)cc(N6CCN(CC7CCN(c8ccc9c(c8)n(C)c(=O)n9C8CCC(=O)NC8=O)CC7)CC6)c5)ccc4c23)C(=O)N1` (some centres unmarked) [Compound I-240], for which the Dmax at MK2 [1] and at MK2 [2] was greater than 75% each time. The 50% degradation concentration (DC50) on MK2 [1] and at MK2 [2] (THP-1 cells) was less than 1 nM throughout.
As for `Cn1c(=O)n(C2CCC(=O)NC2=O)c2cccc(CCCN3CCN(c4ccc(-c5cc(-c6cc7c([nH]6)C6(CC6)CNC7=O)ccn5)cc4)CC3)c21` (centres unmarked) [Compound I-241], the Dmax at MK2 [1] is greater than 75%; at MK2 [2], 50 to 75%. Besides, the 50% degradation concentration (DC50) at MK2 [1] and at MK2 [2] (THP-1 cells) was 1 to 10 nM throughout.
For `Cn1c(=O)n(C2CCC(=O)NC2=O)c2ccc(CCCN3CCN(c4ccc(-c5cc(-c6cc7c([nH]6)C6(CC6)CNC7=O)ccn5)cc4)CC3)cc21` (centres unmarked) [Compound I-242], the Dmax was greater than 75% on MK2 [1] and 50 to 75% at MK2 [2]. In addition, the DC50 on MK2 [1] lay within 1 to 10 nM; at MK2 [2] (THP-1 cells), 10 to 100 nM.
The corresponding values for `Cn1c(=O)n(C2CCC(=O)NC2=O)c2ccc(N3CCC(CN4CCN(c5ccc(-c6cc(-c7cc8c([nH]7)C7(CC7)CNC8=O)ccn6)cn5)CC4)CC3)cc21` (centres unmarked) [Compound I-243] are greater than 75%, 50 to 75%, less than 1 nM and less than 1 nM.
The corresponding values for `Cn1c(=O)n(C2CCC(=O)NC2=O)c2ccc(N3CCC(CN4CCN(c5ccc(-c6cc(-c7cc8c([nH]7)C7(CC7)CNC8=O)ccn6)cc5)CC4)CC3)cc21` (centres unmarked) [Compound I-244] are greater than 75%, greater than 75%, less than 1 nM and less than 1 nM.
Regarding `C[C@@H]1CNc2c(sc3ccc4nc(-c5ccc(N6CCN(CC7CN(c8cccc9c8n(C)c(=O)n9C8CCC(=O)NC8=O)C7)CC6)nc5)ccc4c23)C(=O)N1` (some centres unmarked) [Compound I-245], the greatest degradation seen (Dmax) on MK2 [1] and at MK2 [2] was greater than 75% in each case. Moreover, the DC50 on MK2 [1] and on MK2 [2] (THP-1 cells) was less than 1 nM in each case.
As to `C[C@@H]1CNc2c(sc3ccc4nc(-c5ccc(N6CCN(C7CC(c8cccc9c8n(C)c(=O)n9C8CCC(=O)NC8=O)C7)CC6)cc5)ccc4c23)C(=O)N1` (some centres unmarked) [Compound I-246], the maximal degradation (Dmax) at MK2 [1] and on MK2 [2] was greater than 75% throughout. Also, the DC50 on MK2 [1] and on MK2 [2] (THP-1 cells) was less than 1 nM in each case.
`C[C@@H]1Cc2[nH]c(-c3ccnc(-c4ccc(N5CCC(CN6CCC(c7cccc8c7n(C)c(=O)n8C7CCC(=O)NC7=O)CC6)CC5)cc4)c3)cc2C(=O)N1` (some centres unmarked) [Compound I-248]: the greatest degradation seen (Dmax) on MK2 [1] and at MK2 [2] was greater than 75% throughout. For the same molecule, the 50% degradation concentration (DC50) on MK2 [1] and at MK2 [2] (THP-1 cells) was 1 to 10 nM each time.
Consider `Cc1cc(N2CCN(CCCc3ccc4c(c3)n(C)c(=O)n4C3CCC(=O)NC3=O)CC2)ncc1-c1ccc2c(ccc3sc4c(c32)NC[C@@H](C)NC4=O)n1` (some centres unmarked) [Compound I-249], for which the maximal degradation (Dmax) on MK2 [1] and at MK2 [2] was 50 to 75% throughout. The DC50 on MK2 [1] is less than 1 nM; on MK2 [2] (THP-1 cells) it was 1 to 10 nM.
Regarding `Cc1cc(N2CCN(CC3CN(c4ccc5c(c4)n(C)c(=O)n5C4CCC(=O)NC4=O)C3)CC2)ncc1-c1ccc2c(ccc3sc4c(c32)NC[C@@H](C)NC4=O)n1` (some centres unmarked) [Compound I-250], the Dmax was greater than 75% at MK2 [1] and 50 to 75% at MK2 [2]. In addition, the DC50 on MK2 [1] and at MK2 [2] (THP-1 cells) was less than 1 nM each time.
`C[C@@H]1CNc2c(sc3ccc4nc(-c5ccc(N6CCN(CCCc7ccc8c(c7)n(C)c(=O)n8C7CCC(=O)NC7=O)CC6)cc5Cl)ccc4c23)C(=O)N1` (some centres unmarked) [Compound I-251]: on MK2 [1], the maximal degradation (Dmax) lay within 50 to 75% and the 50% degradation concentration (DC50) is less than 1 nM. In addition, the Dmax at MK2 [2] is less than 50%. Also, the “MK2 MSD THP-1 degradation 24 h GMean External Abs DC50” value on MK2 [2] (THP-1 cells) was “—”.
Take `C[C@@H]1CNc2c(sc3ccc4nc(-c5ccc(N6CCN(CCCc7ccc8c(c7)n(C)c(=O)n8C7CCC(=O)NC7=O)CC6)cc5F)ccc4c23)C(=O)N1` (some centres unmarked) [Compound I-252]: the Dmax on MK2 [1] and on MK2 [2] was greater than 75% throughout. Moreover, the DC50 at MK2 [1] and at MK2 [2] (THP-1 cells) was less than 1 nM throughout.
With `C[C@@H]1CN(C)c2c(sc3ccc4nc(-c5ccc(N6CCC(CN7CCN(c8ccc9c(c8)n(C)c(=O)n9C8CCC(=O)NC8=O)CC7)CC6)cc5)ccc4c23)C(=O)N1` (some centres unmarked) [Compound I-253], the maximal degradation (Dmax) on MK2 [1] and on MK2 [2] was greater than 75% each time. Besides, the half-maximal degradation concentration (DC50) at MK2 [1] and on MK2 [2] (THP-1 cells) was 1 to 10 nM in each case.
On to `C[C@@H]1CNc2c(sc3ccc4nc(-c5ccc(N6CCN(CC7CN(c8ccc9c(c8)n(C)c(=O)n9C8CCC(=O)NC8=O)C7)CC6)nc5)ccc4c23)C(=O)N1` (some centres unmarked) [Compound I-254], for which the greatest degradation seen (Dmax) on MK2 [1] and on MK2 [2] was greater than 75% throughout. Besides, the DC50 at MK2 [1] and at MK2 [2] (THP-1 cells) was less than 1 nM each time.
`COc1ccc2c(c1N1CCC(CN3CCN(c4ccc(-c5ccc6c(ccc7sc8c(c76)NC[C@@H](C)NC8=O)n5)cn4)CC3)CC1)n(C)c(=O)n2C1CCC(=O)NC1=O` (some centres unmarked) [Compound I-255]: the Dmax on MK2 [1] and on MK2 [2] was greater than 75% each time. In addition, the DC50 at MK2 [1] and on MK2 [2] (THP-1 cells) was 1 to 10 nM throughout.
